The values below come from US20140121256A1, “METHOD OF TREATING MUSCULAR WEAKNESS COMPRISING ADMINISTERING A COMPOSITION COMPRISING AN EFFECTIVE AMOUNT OF HISTAMINE AND/OR SEROTONIN” (BEECH TREE LABS, INC., priority 2012, published 2014).

The test system of test [1] is C57BL/10SCSN-Dmd^mdx/J mice. The experiment in a line: Grip strength tests (triangle and mesh) in mdx mouse model of DMD. It counts as in vivo. The conditions noted are these: 1×, 4×, 8×, twice daily. An excerpt:
Female mouse strain C57BL/10SCSN-Dmd^mdx/J (Jackson laboratories) is a strain of mice that is most similar in affliction to humans with DMD. The mdx mutation of Dmd is recessive and heterozygous females are visually indistinguishable from wild-type mice. […] One of the drawbacks of this mouse model is that by six weeks (10 weeks of age) the afflicted mice mimic the wild type control mice. This is attributed to the compensatory function of the dystrophin-related protein utrophin, which is highly up regulated in regenerating muscle fibers in adult Dmd^mdx mutants. The histamine and serotonin formulation was evaluated using this mouse model to determine its effects on DMD.
The first experiment conducted focused on whether any difference could be detected in mice receiving the histamine and serotonin formulation vs. control.
Injections started the following day.
Measurements to determine effectiveness of histamine and serotonin formulation were conducted using two different methods: 1. a wire hang test was utilized to see how long the mice were able to hang onto a wire before releasing and falling, and 2. a grip strength meter device (Columbus Instruments) was used to measure the peak force exerted by the animal when pulled. […]
For both of the grip strength tests, ten measurements were taken per mouse and the average was recorded.

For test [2], the system named is normal human BioArtificial Muscles (mBAMs engineered from human skeletal myoblasts). The experiment in a line: Tetanic (active) force of mBAMs, MyoForce Analysis System. It counts as cell-based. Particulars: 80 nM; after 3-4 days of drug treatment; p<0.001. As for the experimental part: According to this example, a composition comprising histamine and serotonin was administered at 6 different concentrations on normal human BioArtificial Muscles (mBAMs engineered from human skeletal rmyoblasts) for effects on strength (active force generation) and injury using Myomics' MyoForce Analysis System (MFAS™).
A solution comprising 200 times the dosage of the histamine and serotonin present in a typical therapeutic drop (i.e., 1 mg histamine and 16 mg serotonin in PBS) stored at 4° C. was administered to a cell culture comprising human skeletal muscle cells previously isolated from a normal (disease-free) person were used for this study. Cells were expanded in culture in a Growth Medium optimized for human skeletal muscle (SKGM/15) for 5 days before engineering into bioartificial muscles (mBAMs). On the day of engineering, mBAMs, cells were trypsinized and counted following standard laboratory protocols.
A sterile 96 well MyoForce plate was used for tissue engineering the mBAMs. Myomics' Robotic Tissue Engineering Platform was used to engineer 72 mBAMs in approximately 10 minutes by mixing cells with an extracellular matrix solution and casting in the plate wells. The plate containing the mBAMs was maintained for 2 days at 37° C. in SKGM/15, then incubated in an optimized differentiation medium for the remainder of the experiment. […]

Turning to `NCCc1c[nH]cn1` [histamine], in test [1] (third experiment, histamine alone 0.4×), the “triangle and mesh grip strength vs PBS control” value was “improves performance in both the Triangle and Mesh tests”.

Take `NCCc1c[nH]c2ccc(O)cc12` [serotonin, 5-hydroxytryptamine]: the “grip strength tests vs PBS controls” value in test [1] (fourth experiment, serotonin alone 0.4×) is “no statistically significant differences”. With `CC(=O)OCC(=O)[C@@]12N=C(C)O[C@@H]1C[C@H]1[C@@H]3CCC4=CC(=O)C=C[C@]4(C)[C@H]3[C@@H](O)C[C@@]12C` [deflazacort], the “increase in tetanic force compared to untreated controls” value in test [2] worked out at 32%.
